Like-named read-outs stand apart in the source and are kept apart here.
How the values were obtained:
Assay type in all cases: cell-based
CDK4 = biological target: T1, CDK4 (Homo sapiens, UniProt P11802); experiment: CDK4 degradation (DC50, Dmax)
T1 construct: endogenous in cells

CDK6 = biological target: T2, CDK6 (Homo sapiens, UniProt Q00534); experiment: CDK6 degradation (DC50, Dmax)
T2 construct: endogenous in cells

[1] = test system: mantle cell lymphoma cell (Mino or JeKo-1); experiment: Antiproliferative effect, MTS cell viability assay
How it was run: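 MTS read-out (formazan absorbance at 490 nm) after 72 h exposure of Mino cells to 0–1 μM compound (0.0001, 0.001, 0.01, 0.1, 1 μM). Palbociclib and abemaciclib served as positive controls.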

[2] = 72 h, mantle cell lymphoma cell (Mino or JeKo-1), MTS assay, read-out: IC50 (anti-proliferation)

T1 sequence (P11802 whole entry): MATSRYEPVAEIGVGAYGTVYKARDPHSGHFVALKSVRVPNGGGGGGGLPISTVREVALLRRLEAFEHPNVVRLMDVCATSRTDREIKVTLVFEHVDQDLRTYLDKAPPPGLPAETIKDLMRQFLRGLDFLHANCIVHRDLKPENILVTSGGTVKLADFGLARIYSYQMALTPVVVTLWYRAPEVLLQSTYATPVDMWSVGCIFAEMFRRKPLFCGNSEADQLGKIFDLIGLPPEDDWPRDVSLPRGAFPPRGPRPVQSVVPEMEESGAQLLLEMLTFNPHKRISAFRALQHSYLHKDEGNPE
T2 sequence (Q00534 whole entry): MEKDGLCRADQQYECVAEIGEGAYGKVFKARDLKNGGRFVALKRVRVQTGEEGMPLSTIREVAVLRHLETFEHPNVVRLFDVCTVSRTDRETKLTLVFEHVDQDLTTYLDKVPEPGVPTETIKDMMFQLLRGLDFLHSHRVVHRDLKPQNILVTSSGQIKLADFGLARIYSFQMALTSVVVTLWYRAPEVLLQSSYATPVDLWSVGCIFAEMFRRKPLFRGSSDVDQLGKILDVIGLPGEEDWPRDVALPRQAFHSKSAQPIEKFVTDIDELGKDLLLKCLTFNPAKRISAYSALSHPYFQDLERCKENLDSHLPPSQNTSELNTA

Structure (SMILES) | DC50 (CDK4) [µM] | Dmax (CDK4) [%] | DC50 (CDK6) [µM] | Dmax (CDK6) [%] | IC50 [1, 2] [µM] | Dmax CDK4 (CDK4) | Dmax CDK6 (CDK6) | IC50 ([1]; mantle cell lymphoma cell (Mino or JeKo-1); MTS assay, 72 h; read-out: IC50 (anti-proliferation)) [µM] | inhibition of cell proliferation of Mino cells ([1]; Mino cells; 0-1 μM; 72 h; result in words)
Cc1nc2c(F)cc(-c3nc(Nc4ccc(CN5CCN(CC6CCN(c7ccc8c(c7)C(=O)N(C7CCC(=O)NC7=O)C8=O)CC6)CC5)cn4)ncc3F)cc2n1C(C)C (stereo not drawn) [Compound 149, 2-(2,6-dioxopiperidin-3-yl)-5-(4-((4-((6-((5-fluoro-4-(4-fluoro-1-isopropyl-2-methyl-1H-benzo[d]imidazol-6-yl)pyrimidin-2-yl)amino)pyridin-3-yl)methyl)piperazin-1-yl)methyl)piperidin-1-yl)isoindoline-1,3-dione] | < 0.05 | > 80 | < 0.05 | > 80 | < 0.05 |  |  |  | 
CC(=O)c1c(C)c2cnc(Nc3ccc(N4CCN(C(=O)N5CCC(N6CCN(c7ccc8c(c7)C(=O)N(C7CCC(=O)NC7=O)C8=O)CC6)CC5)CC4)cn3)nc2n(C2CCCC2)c1=O (stereo not drawn) [Compound 3, 5-(4-(1-(4-(6-((6-acetyl-8-cyclopentyl-5-methyl-7-oxo-7,8-dihydropyrido[2,3-d]pyrimidin-2-yl)amino)pyridin-3-yl)piperazine-1-carbonyl)piperidin-4-yl)piperazin-1-yl)-2-(2,6-dioxopiperidin-3-yl)isoindoline-1,3-dione] | > 0.2 | > 50 | > 0.2 | > 50 | 0.05 to 0.2 |  |  |  | 
CC(=O)c1c(C)c2cnc(Nc3ccc(N4CCN(C(=O)N5CCC(CC6CCN(c7ccc8c(c7)CN(C7CCC(=O)NC7=O)C8=O)CC6)CC5)CC4)cn3)nc2n(C2CCCC2)c1=O (stereo not drawn) [Compound 14, 3-(5-(4-((1-(4-(6-((6-acetyl-8-cyclopentyl-5-methyl-7-oxo-7,8-dihydropyrido[2,3-d]pyrimidin-2-yl)amino)pyridin-3-yl)piperazine-1-carbonyl)piperidin-4-yl)methyl)piperidin-1-yl)-1-oxoisoindolin-2-yl)piperidine-2,6-dione] | > 0.2 | > 50 | > 0.2 | > 60 | 0.05 to 0.2 |  |  |  | 
Cc1nc2c(F)cc(-c3nc(Nc4ccc(CN5CCN(CCNc6cccc7c6CN(C6CCC(=O)NC6=O)C7=O)CC5)cn4)ncc3F)cc2n1C(C)C (stereo not drawn) [Compound 93] | 0.05 to 0.2 |  | 0.05 to 0.2 |  |  | A (A: >80%) | A (A: >80%) | < 0.05 | 
CC(=O)c1c(C)c2cnc(Nc3ccc(N4CCN(C5CCN(C(=O)Nc6ccc7c(c6)C(=O)N(C6CCC(=O)NC6=O)C7=O)CC5)CC4)cn3)nc2n(C2CCCC2)c1=O (stereo not drawn) [Compound 39, 4-(4-(6-((6-acetyl-8-cyclopentyl-5-methyl-7-oxo-7,8-dihydropyrido[2,3-d]pyrimidin-2-yl)amino)pyridin-3-yl)piperazin-1-yl)-N-(2-(2,6-dioxopiperidin-3-yl)-1,3-dioxoisoindolin-5-yl)piperidine-1-carboxamide] | 0.05 to 0.2 | > 80 | 0.05 to 0.2 | > 80 | < 0.05 |  |  |  | 
CC(=O)c1c(C)c2cnc(Nc3ccc(N4CCN(CCN(C)c5cccc6c5C(=O)N(C5CCC(=O)NC5=O)C6=O)CC4)cn3)nc2n(C2CCCC2)c1=O (stereo not drawn) [Compound 61, 4-((2-(4-(6-((6-acetyl-8-cyclopentyl-5-methyl-7-oxo-7,8-dihydropyrido[2,3-d]pyrimidin-2-yl)amino)pyridin-3-yl)piperazin-1-yl)ethyl)(methyl)amino)-2-(2,6-dioxopiperidin-3-yl) isoindoline-1,3-dione] | 0.05 to 0.2 | > 60 | 0.05 to 0.2 | > 60 | 0.05 to 0.2 |  |  |  | 
CC(=O)c1c(C)c2cnc(Nc3ccc(N4CCN(CCCCN(C)c5ccc6c(c5)CN(C5CCC(=O)NC5=O)C6=O)CC4)cn3)nc2n(C2CCCC2)c1=O (stereo not drawn) [Compound 60, 3-(5-((4-(4-(6-((6-acetyl-8-cyclopentyl-5-methyl-7-oxo-7,8-dihydropyrido[2,3-d]pyrimidin-2-yl)amino)pyridin-3-yl)piperazin-1-yl)butyl)(methyl)amino)-1-oxoisoindolin-2-yl) piperidine-2,6-dione] | 0.05 to 0.2 | > 60 | 0.05 to 0.2 | > 60 | 0.05 to 0.2 |  |  |  | 
Cc1nc2c(F)cc(-c3nc(Nc4ccc(CN5CCN(C(=O)C6CN(c7ccc8c(c7)C(=O)N(C7CCC(=O)NC7=O)C8=O)C6)CC5)cn4)ncc3F)cc2n1C(C)C (stereo not drawn) [Compound 135, 2-(2,6-dioxopiperidin-3-yl)-5-(3-(4-((6-((5-fluoro-4-(4-fluoro-1-isopropyl-2-methyl-1H-benzo[d]imidazol-6-yl)pyrimidin-2-yl)amino)pyridin-3-yl)methyl)piperazine-1-carbonyl)azetidin-1-yl)isoindoline-1,3-dione] | < 0.05 | > 80 | 0.05 to 0.2 | > 60 | < 0.05 |  |  |  | 
CC(=O)c1c(C)c2cnc(Nc3ccc(N4CCN(CCNc5ccc6c(c5)C(=O)N(C5CCC(=O)NC5=O)C6=O)CC4)cn3)nc2n(C2CCCC2)c1=O (stereo not drawn) [Compound 47, 5-((2-(4-(6-((6-acetyl-8-cyclopentyl-5-methyl-7-oxo-7,8-dihydropyrido[2,3-d]pyrimidin-2-yl)amino)pyridin-3-yl)piperazin-1-yl)ethyl)amino)-2-(2,6-dioxopiperidin-3-yl)isoindoline-1,3-dione] | < 0.05 | > 80 | < 0.05 | > 80 | < 0.05 |  |  |  | dose-dependent inhibition of cell proliferation
CC(=O)c1c(C)c2cnc(Nc3ccc(N4CCN(CCN5CCN(C(=O)Nc6ccc7c(c6)C(=O)N(C6CCC(=O)NC6=O)C7=O)CC5)CC4)cn3)nc2n(C2CCCC2)c1=O (stereo not drawn) [Compound 43, 4-(2-(4-(6-((6-acetyl-8-cyclopentyl-5-methyl-7-oxo-7,8-dihydropyrido[2,3-d]pyrimidin-2-yl)amino)pyridin-3-yl)piperazin-1-yl)ethyl)-N-(2-(2,6-dioxopiperidin-3-yl)-1,3-dioxoisoindolin-5-yl)piperazine-1-carboxamide] | 0.05 to 0.2 | > 60 | 0.05 to 0.2 | > 60 | 0.05 to 0.2 |  |  |  | 
CC(=O)c1c(C)c2cnc(Nc3ccc(C4CCN(CC5CN(c6ccc7c(c6)CN(C6CCC(=O)NC6=O)C7=O)C5)CC4)cn3)nc2n(C2CCCC2)c1=O (stereo not drawn) [Compound 126, 3-(5-(3-((4-(6-((6-acetyl-8-cyclopentyl-5-methyl-7-oxo-7,8-dihydropyrido[2,3-d]pyrimidin-2-yl)amino)pyridin-3-yl)piperidin-1-yl)methyl)azetidin-1-yl)-1-oxoisoindolin-2-yl) piperidine-2,6-dione] | < 0.05 | > 80 | < 0.05 | > 80 | < 0.05 |  |  |  | 
Cc1nc2c(F)cc(-c3nc(Nc4ccc(CC5CCN(C(=O)C6CN(c7ccc(NC8CCC(=O)NC8=O)cc7)C6)CC5)cn4)ncc3F)cc2n1C(C)C (stereo not drawn) [Compound 146, 3-((4-(3-(4-((6-((5-fluoro-4-(4-fluoro-1-isopropyl-2-methyl-1H-benzo[d]imidazol-6-yl)pyrimidin-2-yl)amino)pyridin-3-yl)methyl)piperidine-1-carbonyl)azetidin-1-yl)phenyl)amino) piperidine-2,6-dione] | 0.05 to 0.2 | > 50 | 0.05 to 0.2 | > 60 | 0.05 to 0.2 |  |  |  | 
CC(=O)c1c(C)c2cnc(Nc3ccc(N4CCN(C5CCN(C(=O)N6CCC(C7CCN(c8ccc9c(c8)C(=O)N(C8CCC(=O)NC8=O)C9=O)CC7)CC6)CC5)CC4)cn3)nc2n(C2CCCC2)c1=O (stereo not drawn) [Compound 85, 5-(1′-(4-(4-(6-((6-acetyl-8-cyclopentyl-5-methyl-7-oxo-7,8-dihydropyrido[2,3-d]pyrimidin-2-yl)amino)pyridin-3-yl)piperazin-1-yl)piperidine-1-carbonyl)-[4,4′-bipiperidin]-1-yl)-2-(2,6-dioxopiperidin-3-yl) isoindoline-1,3-dione] | > 0.2 | > 60 | > 0.2 | > 60 | > 0.2 |  |  |  | 
CC(=O)c1c(C)c2cnc(Nc3ccc(N4CCN(C(=O)N5CCN(CCN6CCN(c7ccc8c(c7)CN(C7CCC(=O)NC7=O)C8=O)CC6)CC5)CC4)cn3)nc2n(C2CCCC2)c1=O (stereo not drawn) [Compound 22, 3-(5-(4-(2-(4-(4-(6-((6-acetyl-8-cyclopentyl-5-methyl-7-oxo-7,8-dihydropyrido[2,3-d]pyrimidin-2-yl)amino)pyridin-3-yl)piperazine-1-carbonyl)piperazin-1-yl)ethyl)piperazin-1-yl)-1-oxoisoindolin-2-yl)piperidine-2,6-dione] | > 0.2 | > 60 | > 0.2 | > 60 | > 0.2 |  |  |  | 
Cc1nc2c(F)cc(-c3nc(Nc4ccc(CC5CCN(CC6CCN(c7ccc(C(=O)NC8CCC(=O)NC8=O)cc7)CC6)CC5)cn4)ncc3F)cc2n1C(C)C (stereo not drawn) [Compound 159, N-(2,6-dioxopiperidin-3-yl)-4-(4-((4-((6-((5-fluoro-4-(4-fluoro-1-isopropyl-2-methyl-1H-benzo[d]imidazol-6-yl)pyrimidin-2-yl)amino)pyridin-3-yl)methyl)piperidin-1-yl)methyl)piperidin-1-yl)benzamide] | < 0.05 | > 80 | < 0.05 | > 80 | < 0.05 |  |  |  | 
CC(=O)c1c(C)c2cnc(Nc3ccc(N4CCN(CC5CCN(c6ccc7c(c6)CN(C6CCC(=O)NC6=O)C7=O)CC5)CC4)cn3)nc2n(C2CCCC2)c1=O (stereo not drawn) [Compound 66, 3-(5-(4-((4-(6-((6-acetyl-8-cyclopentyl-5-methyl-7-oxo-7,8-dihydropyrido[2,3-d]pyrimidin-2-yl)amino)pyridin-3-yl)piperazin-1-yl)methyl)piperidin-1-yl)-1-oxoisoindolin-2-yl)piperidine-2,6-dione] | 0.05 to 0.2 | > 80 | < 0.05 | > 80 | < 0.05 |  |  |  | 
